Results on five molecules are retold here after patent publication US10414811B2, “Protease-resistant lipidated GLP-1 analogs” (MEDIMMUNE LIMITED, priority 2015, dated 2019).

Like-named read-outs stand apart in the source and are kept apart here. Numbered stars: 1 amine (or outer) side, 2 acyl side, 3 side chain; on linkers, the order of the positions; unused ones are H or OH. Square brackets hold non-standard residues; d marks the D form. Side chains are listed from the residue outwards. Peptide text beside a SMILES is read from it. * marks the point of attachment. C18 diacid = O=C(O)CCCCCCCCCCCCCCCCC(=O)*; γGlu = O=C(O)[C@H](CCC(=O)[*:2])N[*:1]; αMeF = C[C@](N)(Cc1ccccc1)C(=O)O; αMeK = C[C@](N)(CCCCN)C(=O)O; Lauroyl = CCCCCCCCCCCC(=O)*; αMeS = C[C@](N)(CO)C(=O)O; AEEA = NCCOCCOCC(=O)O; Aib = CC(C)(N)C(=O)O

What all share (assay type): cell-based
In assay [1] the target is T1, human GLP-1 receptor (GLP-1R) (Homo sapiens, UniProt P43220).
T1 construct: expressed in transfected cells
Put plainly: cAMP assay, human GLP-1R cells. Summed up: (§1)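 Peptide-stimulated cAMP measured by two-step HTRF after a 30 min room-temperature incubation with receptor-expressing cells (hGLP-1R, hGIPR at 1×10^5 cells/ml; hGCGR at 2×10^5 cells/ml). Duplicate dilutions; EC50 from 4-parameter logistic fit of % Delta F.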
A general note: Cyclic AMP is a second messenger, typically raised through Gs and lowered through Gi signalling.

The target of assay [2] is T2, human glucagon receptor (GCGR) (Homo sapiens, UniProt P47871).
T2 construct: expressed in transfected cells
Put plainly: cAMP assay, human GCGR cells. The essentials:
as §1

Assay [3] addresses T3, human glucose-dependent insulinotropic peptide receptor (GIPR) (Homo sapiens, UniProt P48546).
T3 construct: expressed in transfected cells
T3 sequence (P48546 22-466): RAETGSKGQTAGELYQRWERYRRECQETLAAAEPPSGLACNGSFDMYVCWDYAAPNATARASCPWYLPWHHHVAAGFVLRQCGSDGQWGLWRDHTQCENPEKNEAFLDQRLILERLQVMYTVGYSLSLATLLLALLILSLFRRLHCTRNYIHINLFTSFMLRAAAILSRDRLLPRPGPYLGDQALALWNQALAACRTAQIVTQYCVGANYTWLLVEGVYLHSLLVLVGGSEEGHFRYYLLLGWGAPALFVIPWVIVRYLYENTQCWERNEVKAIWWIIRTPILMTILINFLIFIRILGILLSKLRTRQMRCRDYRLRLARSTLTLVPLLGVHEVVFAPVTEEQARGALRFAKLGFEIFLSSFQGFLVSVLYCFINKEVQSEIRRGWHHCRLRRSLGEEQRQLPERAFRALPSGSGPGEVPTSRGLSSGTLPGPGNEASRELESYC
The assay is described as follows: cAMP assay, human GIPR cells. The essentials: as §1

Where [4] appears, read: tris-lipidated peptides, mean of n1 and n2, read-out: Primary assay EC50 Mean pM GLP-1R.
[5] abbreviates: tris-lipidated peptides, replicate n1, read-out: Primary assay EC50 GLP-1R n1.
[6] abbreviates: tris-lipidated peptides, replicate n2, read-out: Primary assay EC50 GLP-1R n2.
The mark [7] stands for this setting: tris-lipidated peptides, first replicate, read-out: Primary assay EC50 Gluc-R (n1).
[8] abbreviates: tris-lipidated peptides, first replicate, read-out: Primary assay EC50 GIP-R (n1).
[9] abbreviates: cAMP assay, first determination (n1), read-out: Primary assay EC50 GLP-1R n1.
Where [10] appears, read: cAMP assay, second determination (n2), read-out: Primary assay EC50 GLP-1R n2.
[11] abbreviates: mean of n1 and n2, read-out: Mean pM GLP-1R.
Setting [12] is: cAMP assay, first determination (n1), read-out: Primary assay EC50 Gluc-R (n1).
Setting [13] is: cAMP assay, second determination (n2), read-out: Primary assay EC50 Gluc-R (n2).
Setting [14] is: cAMP assay, first determination (n1), read-out: Primary assay EC50 GIP-R (n1).
[15] abbreviates: cAMP assay, second determination (n2), read-out: Primary assay EC50 GIP-R (n2).

T1 sequence (P43220 24-463): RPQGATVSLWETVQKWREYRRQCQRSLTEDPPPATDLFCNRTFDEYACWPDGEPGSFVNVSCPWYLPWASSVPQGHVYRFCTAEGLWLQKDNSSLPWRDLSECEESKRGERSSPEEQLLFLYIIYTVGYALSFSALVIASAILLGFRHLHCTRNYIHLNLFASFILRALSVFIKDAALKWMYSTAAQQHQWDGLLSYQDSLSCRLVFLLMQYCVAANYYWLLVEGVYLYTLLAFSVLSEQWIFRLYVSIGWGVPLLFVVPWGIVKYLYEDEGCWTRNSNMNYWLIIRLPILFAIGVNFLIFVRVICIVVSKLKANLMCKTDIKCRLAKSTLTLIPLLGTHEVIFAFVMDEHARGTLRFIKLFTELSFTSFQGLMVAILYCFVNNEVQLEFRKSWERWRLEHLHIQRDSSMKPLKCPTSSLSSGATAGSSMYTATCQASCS
T2 sequence (P47871 26-477): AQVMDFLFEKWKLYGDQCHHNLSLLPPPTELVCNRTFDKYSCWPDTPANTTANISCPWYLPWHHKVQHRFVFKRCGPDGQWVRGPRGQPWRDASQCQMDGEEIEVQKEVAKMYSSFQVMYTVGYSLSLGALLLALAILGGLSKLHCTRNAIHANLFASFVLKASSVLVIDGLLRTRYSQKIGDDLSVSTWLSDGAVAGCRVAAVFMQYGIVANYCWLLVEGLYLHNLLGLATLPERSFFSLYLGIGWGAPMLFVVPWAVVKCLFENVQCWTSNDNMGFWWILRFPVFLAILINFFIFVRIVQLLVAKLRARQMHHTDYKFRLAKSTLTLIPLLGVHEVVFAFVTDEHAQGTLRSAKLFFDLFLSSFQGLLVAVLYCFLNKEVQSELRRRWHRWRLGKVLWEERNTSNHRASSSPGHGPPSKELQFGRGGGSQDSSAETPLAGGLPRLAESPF

As to `CCCCCCCCCCCC(=O)N[C@@H](CCC(=O)NCCOCCOCC(=O)NCCOCCOCC(=O)NCCCC[C@H](NC(=O)[C@H](C)NC(=O)[C@@H](NC(=O)[C@H](Cc1ccccc1)NC(=O)[C@H](CCCCNC(=O)COCCOCCNC(=O)COCCOCCNC(=O)CC[C@H](NC(=O)CCCCCCCCCCC)C(=O)O)NC(=O)[C@](C)(CCCCN)NC(=O)[C@H](C)NC(=O)[C@H](C)NC(=O)[C@H](CCC(=O)O)NC(=O)CNC(=O)[C@H](CCC(=O)O)NC(=O)[C@H](CCCCNC(=O)COCCOCCNC(=O)COCCOCCNC(=O)CC[C@H](NC(=O)CCCCCCCCCCC)C(=O)O)NC(=O)[C@H](Cc1ccc(O)cc1)NC(=O)[C@H](CO)NC(=O)[C@](C)(CO)NC(=O)[C@@H](NC(=O)[C@H](CC(=O)O)NC(=O)[C@H](CO)NC(=O)[C@@H](NC(=O)[C@](C)(Cc1ccccc1)NC(=O)[C@H](CO)NC(=O)CNC(=O)[C@H](CCC(=O)O)NC(=O)C(C)(C)NC(=O)[C@@H](N)Cc1c[nH]cn1)[C@@H](C)O)C(C)C)[C@@H](C)CC)C(=O)N[C@H](C(=O)N[C@H](C(=O)N[C@@H](CCC(=O)O)C(=O)NCC(=O)NCC(N)=O)C(C)C)C(C)C)C(=O)O` [compound 470] (H-H[Aib]EGS[αMeF]TSDV[αMeS]SYK([AEEA-AEEA-γGlu-Lauroyl])EGEAA[αMeK]K([AEEA-AEEA-γGlu-Lauroyl])FIAK([AEEA-AEEA-γGlu-Lauroyl])VVEGG-NH2; N-terminus assumed), the EC50 was determined as 31.3 pM in assay [1] (setting [4]); 26 pM in assay [1] (setting [5]); 36.5 pM in assay [1] (setting [6]); 20 nM in assay [2] (tris-lipidated peptides, second replicate, read-out: Primary assay EC50 Gluc-R (n2)); 20 nM in assay [3] (tris-lipidated peptides, second replicate, read-out: Primary assay EC50 GIP-R (n2)).
Consider `CCCCCCCCCCCC(=O)N[C@@H](CCC(=O)NCCOCCOCC(=O)NCCOCCOCC(=O)NCCCC[C@H](NC(=O)[C@H](CCC(=O)O)NC(=O)CNC(=O)[C@H](CCC(=O)O)NC(=O)[C@H](CC(C)C)NC(=O)[C@H](CCCCNC(=O)COCCOCCNC(=O)COCCOCCNC(=O)CC[C@H](NC(=O)CCCCCCCCCCC)C(=O)O)NC(=O)[C@H](CO)NC(=O)[C@](C)(CO)NC(=O)[C@@H](NC(=O)[C@H](CC(=O)O)NC(=O)[C@H](CO)NC(=O)[C@@H](NC(=O)[C@](C)(Cc1ccccc1)NC(=O)[C@H](CO)NC(=O)CNC(=O)[C@H](CCC(=O)O)NC(=O)C(C)(C)NC(=O)[C@@H](N)Cc1c[nH]cn1)[C@@H](C)O)C(C)C)C(=O)N[C@@H](C)C(=O)N[C@@](C)(CCCCN)C(=O)N[C@@H](CCC(=O)O)C(=O)N[C@@H](Cc1ccccc1)C(=O)N[C@H](C(=O)N[C@@H](CCCCNC(=O)COCCOCCNC(=O)COCCOCCNC(=O)CC[C@H](NC(=O)CCCCCCCCCCC)C(=O)O)C(=O)N[C@@H](Cc1ccccc1)C(=O)N[C@H](C(=O)N[C@H](C(=O)N[C@@H](CCC(=O)O)C(=O)NCC(=O)NCC(N)=O)C(C)C)C(C)C)[C@@H](C)CC)C(=O)O` [compound 449] (H-H[Aib]EGS[αMeF]TSDV[αMeS]SK([AEEA-AEEA-γGlu-Lauroyl])LEGEK([AEEA-AEEA-γGlu-Lauroyl])A[αMeK]EFIK([AEEA-AEEA-γGlu-Lauroyl])FVVEGG-NH2; N-terminus assumed), for which the EC50 in assay [1] (setting [4]) was found to be 246 pM; in assay [1] (setting [5]), 216 pM; in assay [1] (setting [6]), 276 pM; in assay [2] (setting [7]), 19.7 nM; in assay [3] (setting [8]) it was 19.7 nM.
`CC[C@H](C)[C@H](NC(=O)[C@](C)(Cc1ccccc1)NC(=O)[C@H](CCC(=O)O)NC(=O)[C@H](CCCCNC(=O)CCCCCNC(=O)CCCCCNC(=O)CCCCCNC(=O)CCCCCCCCCCCCCCCCC(=O)O)NC(=O)[C@H](C)NC(=O)[C@H](C)NC(=O)[C@H](CCC(=O)O)NC(=O)CNC(=O)[C@H](CCC(=O)O)NC(=O)[C@H](CC(C)C)NC(=O)[C@](C)(Cc1ccccc1)NC(=O)[C@H](CO)NC(=O)[C@](C)(CO)NC(=O)[C@@H](NC(=O)[C@H](CC(=O)O)NC(=O)[C@H](CO)NC(=O)[C@@H](NC(=O)[C@](C)(Cc1ccccc1)NC(=O)[C@H](CO)NC(=O)CNC(=O)[C@H](CCC(=O)O)NC(=O)C(C)(C)NC(=O)[C@@H](N)Cc1c[nH]cn1)[C@@H](C)O)C(C)C)C(=O)N[C@@H](C)C(=O)N[C@@](C)(Cc1ccccc1)C(=O)N[C@H](C(=O)N[C@H](C(=O)N[C@@](C)(CCCCN)C(=O)NCC(=O)NCC(N)=O)C(C)C)C(C)C` [compound 160]: the EC50 in assay [1] (setting [9]) is 390 pM; in assay [1] (setting [10]), 320 pM; in assay [1] (setting [11]), 351 pM; in assay [2] (setting [12]), not below 26 nM; in assay [2] (setting [13]), not below 26 nM; in assay [3] (setting [14]), not below 26 nM. Further, the EC50 in assay [3] (setting [15]) was not below 26 nM.
Consider `CC[C@H](C)[C@H](NC(=O)[C@](C)(Cc1ccccc1)NC(=O)[C@H](CCC(=O)O)NC(=O)[C@](C)(CCCCN)NC(=O)[C@H](C)NC(=O)[C@H](C)NC(=O)[C@H](CCC(=O)O)NC(=O)CNC(=O)[C@H](CCCCNC(=O)COCCOCCNC(=O)COCCOCCNC(=O)CC[C@H](NC(=O)CCCCCCCCCCCCCCCCC(=O)O)C(=O)O)NC(=O)[C@H](CC(C)C)NC(=O)[C@](C)(Cc1ccccc1)NC(=O)[C@H](CO)NC(=O)[C@](C)(CO)NC(=O)[C@@H](NC(=O)[C@H](CC(=O)O)NC(=O)[C@H](CO)NC(=O)[C@@H](NC(=O)[C@](C)(Cc1ccccc1)NC(=O)[C@H](CO)NC(=O)CNC(=O)[C@H](CCC(=O)O)NC(=O)C(C)(C)NC(=O)[C@@H](N)Cc1c[nH]cn1)[C@@H](C)O)C(C)C)C(=O)N[C@@H](C)C(=O)N[C@@](C)(Cc1ccccc1)C(=O)N[C@H](C(=O)N[C@H](C(=O)N[C@@](C)(CCCCN)C(=O)NCC(=O)NCC(N)=O)C(C)C)C(C)C` [compound 114] (H-H[Aib]EGS[αMeF]TSDV[αMeS]S[αMeF]LK([AEEA-AEEA-γGlu-C18 diacid])GEAA[αMeK]E[αMeF]IA[αMeF]VV[αMeK]GG-NH2; N-terminus assumed), for which the EC50 was 550 pM in assay [1] (setting [9]); 458 pM in assay [1] (setting [10]); 503 pM in assay [1] (setting [11]); not below 25 nM in assay [2] (setting [12]); not below 25.4 nM in assay [2] (setting [13]); not below 25 nM in assay [3] (setting [14]). In addition, in assay [3] (setting [15]), the EC50 is not below 25.4 nM.
Turning to `CCCCCCCCCCCC(=O)N[C@@H](CCC(=O)NCCOCCOCC(=O)NCCOCCOCC(=O)NCCCC[C@H](NC(=O)[C@H](CCC(=O)O)NC(=O)[C@H](CCCCNC(=O)COCCOCCNC(=O)COCCOCCNC(=O)CC[C@H](NC(=O)CCCCCCCCCCC)C(=O)O)NC(=O)[C@H](Cc1ccc(O)cc1)NC(=O)[C@H](CO)NC(=O)[C@](C)(CO)NC(=O)[C@@H](NC(=O)[C@H](CC(=O)O)NC(=O)[C@H](CO)NC(=O)[C@@H](NC(=O)[C@](C)(Cc1ccccc1)NC(=O)[C@H](CO)NC(=O)CNC(=O)[C@H](CCC(=O)O)NC(=O)C(C)(C)NC(=O)[C@@H](N)Cc1c[nH]cn1)[C@@H](C)O)C(C)C)C(=O)N[C@@H](CCC(=O)O)C(=O)N[C@@H](C)C(=O)N[C@@H](C)C(=O)N[C@@](C)(CCCCN)C(=O)N[C@@H](CCC(=O)O)C(=O)N[C@@H](Cc1ccccc1)C(=O)N[C@H](C(=O)N[C@@H](CCCCNC(=O)COCCOCCNC(=O)COCCOCCNC(=O)CC[C@H](NC(=O)CCCCCCCCCCC)C(=O)O)C(=O)N[C@@H](Cc1ccccc1)C(=O)N[C@H](C(=O)N[C@H](C(=O)N[C@@H](CCC(=O)O)C(=O)NCC(=O)NCC(N)=O)C(C)C)C(C)C)[C@@H](C)CC)C(=O)O` [compound 451] (H-H[Aib]EGS[αMeF]TSDV[αMeS]SYK([AEEA-AEEA-γGlu-Lauroyl])EK([AEEA-AEEA-γGlu-Lauroyl])EAA[αMeK]EFIK([AEEA-AEEA-γGlu-Lauroyl])FVVEGG-NH2; N-terminus assumed), the EC50 in assay [1] (setting [4]) is 93.4 pM; in assay [1] (setting [5]), 28.8 pM; in assay [1] (setting [6]), 158 pM; in assay [2] (setting [7]), 19.7 nM; in assay [3] (setting [8]), 19.7 nM.
